Measured values as given in PubChem BioAssay (NCI).
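Abbreviation: GI50, concentration required for 50% inhibition of growth. TGI: total growth inhibition.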

Experiments:
Assay in all cases: NCI tumour cell line growth inhibition, 384-well format
786-0 renal = system: 786-0 renal
A498 renal = system: A498 renal
A549 NSCLC = system: A549 NSCLC
ACHN renal = system: ACHN renal
BT-549 breast = system: BT-549 breast
CAKI-1 renal = system: CAKI-1 renal
CCRF-CEM leukemia = system: CCRF-CEM leukemia
COLO 205 colon = system: COLO 205 colon
EKVX NSCLC = system: EKVX NSCLC
HCT-15 colon = system: HCT-15 colon
HL-60(TB) leukemia = system: HL-60(TB) leukemia
HOP-62 NSCLC = system: HOP-62 NSCLC
HOP-92 NSCLC = system: HOP-92 NSCLC
HT29 colon = system: HT29 colon
IGROV1 ovarian = system: IGROV1 ovarian
K-562 leukemia = system: K-562 leukemia
KM12 colon = system: KM12 colon
LOX IMVI melanoma = system: LOX IMVI melanoma
M14 melanoma = system: M14 melanoma
MDA-MB-435 melanoma = system: MDA-MB-435 melanoma
MDA-MB-468 breast = system: MDA-MB-468 breast
MOLT-4 leukemia = system: MOLT-4 leukemia
NCI-H226 lung = system: NCI-H226 lung
NCI-H23 lung = system: NCI-H23 lung
NCI-H322M lung = system: NCI-H322M lung
NCI-H460 NSCLC = system: NCI-H460 NSCLC
NCI-H522 lung = system: NCI-H522 lung
NCI/ADR-RES ovarian = system: NCI/ADR-RES ovarian
OVCAR-4 ovarian = system: OVCAR-4 ovarian
OVCAR-5 ovarian = system: OVCAR-5 ovarian
OVCAR-8 ovarian = system: OVCAR-8 ovarian
PC-3 prostate = system: PC-3 prostate
RXF 393 renal = system: RXF 393 renal
SF-268 CNS = system: SF-268 CNS
SF-295 CNS = system: SF-295 CNS
SF-539 CNS = system: SF-539 CNS
SK-MEL-2 melanoma = system: SK-MEL-2 melanoma
SK-MEL-28 melanoma = system: SK-MEL-28 melanoma
SN12C renal = system: SN12C renal
SNB-19 CNS = system: SNB-19 CNS
SNB-75 CNS = system: SNB-75 CNS
SR leukemia = system: SR leukemia
TK-10 renal = system: TK-10 renal
U251 glioblastoma = system: U251 glioblastoma
UACC-257 melanoma = system: UACC-257 melanoma
UACC-62 melanoma = system: UACC-62 melanoma
UO-31 renal = system: UO-31 renal

`Cc1cc([C@H](C)Nc2nccc(N3C(=O)OC[C@@H]3[C@H](C)F)n2)ncc1-c1ccnc(C(F)(F)F)c1` was tested, and the GI50 ([…]-0 renal) was 31.3 µM, the TGI (786-0 renal) was > 100 µM and the GI50 (A498 renal) was 30.4 µM. The TGI (A498 renal) was > 100 µM, the GI50 (A549 NSCLC) was 41.1 µM and the TGI (A549 NSCLC) was > 100 µM. The GI50 (ACHN renal) was 40.2 µM, the TGI (ACHN renal) was > 100 µM and the GI50 (BT-549 breast) was 28 µM. The TGI (BT-549 breast) was > 100 µM, the GI50 (CAKI-1 renal) was 34.4 µM and the TGI (CAKI-1 renal) was > 100 µM. The GI50 (CCRF-CEM leukemia) was 7.56 µM, the TGI (CCRF-CEM leukemia) was 31.5 µM and the GI50 (COLO 205 colon) was 64.1 µM. For the same compound, the TGI (COLO 205 colon) was > 100 µM, the GI50 (EKVX NSCLC) was 11.2 µM and the TGI (EKVX NSCLC) was 98.2 µM. The GI50 (HCT-15 colon) was 33.9 µM, the TGI (HCT-15 colon) was > 100 µM and the GI50 (HL-60(TB) leukemia) was 17.5 µM. The TGI (HL-60(TB) leukemia) was 31.3 µM, the GI50 (HOP-62 NSCLC) was 54.5 µM and the TGI (HOP-62 NSCLC) was > 100 µM. For the same compound, the GI50 (HOP-92 NSCLC) was 29.2 µM, the TGI (HOP-92 NSCLC) was > 100 µM and the GI50 (HT29 colon) was 31.7 µM. The TGI (HT29 colon) was > 100 µM, the GI50 (IGROV1 ovarian) was 28.3 µM and the TGI (IGROV1 ovarian) was > 100 µM. For the same compound, the GI50 (K-562 leukemia) was 8.88 µM, the TGI (K-562 leukemia) was > 100 µM and the GI50 (KM12 colon) was 40.1 µM. For the same compound, the TGI (KM12 colon) was > 100 µM, the GI50 (LOX IMVI melanoma) was 53.1 µM and the TGI (LOX IMVI melanoma) was > 100 µM. The GI50 (M14 melanoma) was 86.2 µM, the TGI (M14 melanoma) was > 100 µM and the GI50 (MDA-MB-435 melanoma) was 52.7 µM. For the same compound, the TGI (MDA-MB-435 melanoma) was > 100 µM, the GI50 (MDA-MB-468 breast) was 4.43 µM and the TGI (MDA-MB-468 breast) was 24.5 µM. It also gave a GI50 (MOLT-4 leukemia) of 12.5 µM, a TGI (MOLT-4 leukemia) of 25.3 µM and a GI50 (NCI-H226 lung) of 25.3 µM. For the same compound, the TGI (NCI-H226 lung) was > 100 µM, the GI50 (NCI-H23 lung) was 8.03 µM and the TGI (NCI-H23 lung) was > 100 µM. For the same compound, the GI50 (NCI-H322M lung) was 41.5 µM, the TGI (NCI-H322M lung) was > 100 µM and the GI50 (NCI-H460 NSCLC) was 37.1 µM. The TGI (NCI-H460 NSCLC) was > 100 µM, the GI50 (NCI-H522 lung) was 13.5 µM and the TGI (NCI-H522 lung) was 58.7 µM. For the same compound, the GI50 (NCI/ADR-RES ovarian) was 16.2 µM, the TGI (NCI/ADR-RES ovarian) was 94.4 µM and the GI50 (OVCAR-4 ovarian) was 29.6 µM. The TGI (OVCAR-4 ovarian) was > 100 µM, the GI50 (OVCAR-5 ovarian) was 53.9 µM and the TGI (OVCAR-5 ovarian) was > 100 µM. For the same compound, the GI50 (OVCAR-8 ovarian) was 31.6 µM, the TGI (OVCAR-8 ovarian) was > 100 µM and the GI50 (PC-3 prostate) was 27.7 µM. The TGI (PC-3 prostate) was > 100 µM, the GI50 (RXF 393 renal) was 15.7 µM and the TGI (RXF 393 renal) was 76.5 µM. For the same compound, the GI50 (SF-268 CNS) was 68.6 µM, the TGI (SF-268 CNS) was > 100 µM and the GI50 (SF-295 CNS) was 33.5 µM. The TGI (SF-295 CNS) was > 100 µM, the GI50 (SF-539 CNS) was 96.3 µM and the TGI (SF-539 CNS) was > 100 µM. For the same compound, the GI50 (SK-MEL-2 melanoma) was 82.9 µM, the TGI (SK-MEL-2 melanoma) was > 100 µM and the GI50 (SK-MEL-28 melanoma) was > 100 µM. The TGI (SK-MEL-28 melanoma) was > 100 µM, the GI50 (SN12C renal) was 45.5 µM and the TGI (SN12C renal) was > 100 µM. For the same compound, the GI50 (SNB-19 CNS) was 42.7 µM, the TGI (SNB-19 CNS) was > 100 µM and the GI50 (SNB-75 CNS) was 29.7 µM. For the same compound, the TGI (SNB-75 CNS) was > 100 µM, the GI50 (SR leukemia) was 11.1 µM and the TGI (SR leukemia) was 25.4 µM. For the same compound, the GI50 (TK-10 renal) was 27.8 µM, the TGI (TK-10 renal) was > 100 µM and the GI50 (U251 glioblastoma) was 36.4 µM. The TGI (U251 glioblastoma) was > 100 µM, the GI50 (UACC-257 melanoma) was 16.6 µM and the TGI (UACC-257 melanoma) was 51.1 µM. The GI50 (UACC-62 melanoma) was 52.2 µM, the TGI (UACC-62 melanoma) was > 100 µM and the GI50 (UO-31 renal) was 18.8 µM. For the same compound, the TGI (UO-31 renal) was > 100 µM.
